Experimental data: patent publication US10028961B2, “Therapeutically active compounds and their methods of use” (AGIOS PHARMACEUTICALS, INC., priority 2013, dated 2018)

Assays:
[1] = target: IDH1-R132 homodimer enzyme (R132H) (Homo sapiens (Human), UniProt O75874, R132H); experiment: In vitro assay IDH1-R132H homodimer, NADPH depletion assay; format: biochemical
Experimental: (§1) The following describes the experimental procedures that can be used to obtain data on columns 3 and 6 of Table 4.
(§2) A test compound is prepared as 10 mM stock in DMSO and diluted to 50× final concentration in DMSO, for a 50 μl reaction mixture. IDH enzyme activity converting alpha-ketoglutarate to 2-hydroxyglutaric acid is measured using a NADPH depletion assay. In the assay the remaining cofactor is measured at the end of the reaction with the addition of a catalytic excess of diaphorase and resazurin, to generate a fluorescent signal in proportion to the amount of NADPH remaining. […] The reaction is started with the addition of 10 μl of Substrate Mix ([…], 5 mM alpha-ketoglutarate, in Assay Buffer) and the mixture is incubated for 90 minutes at room temperature.

[2] = target: IDH1 R132C (Homo sapiens (Human), UniProt O75874, R132C); experiment: In vitro assay IDH1 R132C homodimer, NADPH depletion assay; format: biochemical
Experimental: as §1, §2
The concentration of NADPH and alpha-ketoglutarate in the Substrate Buffer is 20 μM and 1 mM, respectively.

[3] = target: IDH2 R140Q (Homo sapiens (Human), UniProt P48735, R140Q); experiment: In vitro assay for IDH2m R140Q inhibitors, cofactor depletion assay; format: biochemical; conditions: IDH2 R140Q enzyme
Summary of the method: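 Remaining cofactor measured fluorimetrically: diaphorase/resazurin Stop Mix […], halting the reaction. Before that, mutant enzyme and compound sat 1 h at RT, then substrate mix (4 μM NADPH, 1.6 mM α-KG) was added for 16 h at RT.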

[4] = system: HT1080 cells; experiment: Cellular assay for IDH1m R132C inhibitors, 2-HG by LC-MS in HT1080 cells; format: cell-based; conditions: Homo sapiens, HT-1080
Summary of the method: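 2-HG levels were measured by LC-MS in culture medium sampled 48 h after compound addition (0.2% DMSO) to HT1080 cells seeded overnight at 5000 cells/well. A CellTiter-Glo luminescence read at 72 h gave cell viability.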

[5] = target: IDH1-R132H homodimer enzyme (Homo sapiens (Human), UniProt O75874, R132H); experiment: In vitro assay IDH1-R132H homodimer, NADPH depletion assay with NADPH/NADP preincubation; format: biochemical; conditions: 5 μM NADPH and 37.5 μM NADP
Summary of the method: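 Compounds were added from DMSO at 50× final concentration, and the mutant enzyme was incubated 60 min at room temperature after starting with a substrate mix holding NADPH and 5 mM alpha-ketoglutarate. Residual cofactor, read by fluorescence after excess diaphorase and resazurin, reflects enzyme turnover.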

[6] = system: U87MG pLVX-IDH2 R140Q-neo cells; experiment: U87MG pLVX-IDH2 R140Q-neo cell based assay, 2-HG by LC-MS; conditions: Homo sapiens, U-87 MG
[7] = target: IDH1 wt/IDH1 R132H heterodimer (Homo sapiens (Human), UniProt O75874, R132H); experiment: In vitro assay for IDH1m R132H inhibitors, IDH1 wt/IDH1 R132H heterodimer, NADPH depletion (diaphorase/resazurin); format: biochemical; conditions: IDH1 wt/R132H heterodimer, NADPH/NADP, not saturated; read-out: IDH1 wt/R132H NADPH/NADP IC50 not saturated
Summary of the method: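 Read-out is NADPH left after α-KG reduction to 2-HG, measured via resorufin fluorescence after 5 min diaphorase/resazurin step at 25° C. Enzyme is sf9-expressed IDH1wt-his/IDH1R132H-flag heterodimer, pre-incubated 1 hr at room temperature with compound and cofactor. IC50s from DMSO stocks diluted 1:50.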

Sequence of IDH2 R140Q (P48735 40-452 R140Q): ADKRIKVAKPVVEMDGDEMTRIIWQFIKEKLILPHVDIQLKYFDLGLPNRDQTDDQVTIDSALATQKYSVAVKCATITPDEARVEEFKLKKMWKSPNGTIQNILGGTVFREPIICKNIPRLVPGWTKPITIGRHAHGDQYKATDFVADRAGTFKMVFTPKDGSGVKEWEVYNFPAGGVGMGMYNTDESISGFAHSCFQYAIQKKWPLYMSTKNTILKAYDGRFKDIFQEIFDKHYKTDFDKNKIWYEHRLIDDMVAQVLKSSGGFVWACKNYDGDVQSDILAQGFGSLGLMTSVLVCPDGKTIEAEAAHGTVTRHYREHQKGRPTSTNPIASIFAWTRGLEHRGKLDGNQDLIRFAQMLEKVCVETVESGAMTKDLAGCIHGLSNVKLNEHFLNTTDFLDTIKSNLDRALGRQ
Sequence of IDH1 R132C (O75874 whole entry R132C): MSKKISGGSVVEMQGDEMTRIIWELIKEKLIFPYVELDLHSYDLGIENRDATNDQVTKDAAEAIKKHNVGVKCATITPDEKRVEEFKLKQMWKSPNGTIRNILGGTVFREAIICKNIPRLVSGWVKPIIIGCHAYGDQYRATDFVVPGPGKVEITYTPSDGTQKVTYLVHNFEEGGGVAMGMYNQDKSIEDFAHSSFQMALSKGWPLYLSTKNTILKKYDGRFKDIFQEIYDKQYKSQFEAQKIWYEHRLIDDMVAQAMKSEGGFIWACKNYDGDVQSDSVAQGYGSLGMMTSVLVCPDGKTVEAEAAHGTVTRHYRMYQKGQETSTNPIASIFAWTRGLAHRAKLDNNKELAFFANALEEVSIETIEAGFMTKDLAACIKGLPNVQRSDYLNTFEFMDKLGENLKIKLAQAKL
Sequence of IDH1 wt/IDH1 R132H heterodimer (O75874 whole entry R132H): as the sequence (O75874 whole entry R132C) above, with C132H counted along it
Sequence of IDH1 wt/IDH1 R132H heterodimer (O75874 whole entry, stated change not applied): as the sequence (O75874 whole entry R132C) above, with C132R counted along it
Sequence of IDH1-R132 homodimer enzyme (R132H) (O75874 whole entry R132H): as the sequence (O75874 whole entry R132C) above, with C132H counted along it
Sequence of IDH1-R132H homodimer enzyme (O75874 whole entry R132H): as the sequence (O75874 whole entry R132C) above, with C132H counted along it

Row | IC50 [1] [nM] | IC50 [2] [nM] | SMILES | further results
1 | 100 to 1000 | > 1000 | C[C@@H](Nc1nc(N[C@H]2CCC[C@H]2O)nc(-c2cccc(C(F)(F)F)n2)n1)C1CC1 [Compound 43] | –
2 | 50 to 100 | > 1000 | C[C@@H](Nc1nc(NC(C)(C)C#N)nc(-c2cccc(C(F)(F)F)n2)n1)C1CC1 [Compound 37] | –
3 | > 1000 | > 1000 | C[C@@H](Nc1nc(NCC(C)(C)O)nc(-c2cccc(C(F)(F)F)n2)n1)C1CC1 (stereo in doubt) [Compound 10, 1-(4-(1-cyclopropylethylamino)-6-(6-(trifluoromethyl)pyridin-2-yl)-1,3,5-triazin-2-ylamino)-2-methylpropan-2-ol] | IC50 [3]: 50 to 100 nM
4 | < 50 | 50 to 100 | CC(C)[C@@H](C)Nc1nc(N[C@H](C)C(C)C)nc(-c2cccc(C(F)(F)F)n2)n1 [Compound 18] | IC50 [4]: 50 to 100 nM
5 | – | > 1000 | COc1ccc(F)c(-c2nc(N[C@H](C)C3CC3)nc(N[C@H](C)C3CC3)n2)c1 [Compound 8] | IDH1 R132H IC50 [1]: No Fit; IC50 [3]: 50 to 100 nM
6 | < 50 | 50 to 100 | CC(C)C(C)Nc1nc(NC(C)C(C)C)nc(-c2cccc(C(F)(F)F)n2)n1 (centres unmarked) [Compound 13] | IC50 [4]: < 50 nM
7 | > 1000 | – | FC(F)(F)c1cccc(-c2nc(NCC3CC3)cc(NCC3CC3)n2)n1 [Compound 419] | IC50 [5]: 100 to 1000 nM; IC50 [6]: 100 to 1000 nM
8 | 50 to 100 | 50 to 100 | C[C@@H](Nc1nc(N[C@@H]2C[C@H]2c2ccccc2)nc(-c2cccc(C(F)(F)F)n2)n1)C1CC1 [Compound 23] | –
9 | 50 to 100 | 100 to 1000 | FC(F)(F)c1cccc(-c2nc(NC3CCC3)nc(NC3CCC3)n2)n1 [Compound 9] | IC50 [3]: < 50 nM
10 | > 1000 | > 1000 | CC(=O)CNc1nc(N[C@H](C)C2CC2)nc(-c2cccc(C(F)(F)F)n2)n1 [Compound 15] | –
11 | > 1000 | – | C[C@@H](Nc1nc(N[C@H](C)C2CC2)nc(-c2cccc(C(F)(F)F)n2)n1)C(=O)N(C)C [Compound 48] | IDH1 R132C IC50 [2]: No Fit
12 | > 1000 | > 1000 | COc1ccc(F)c(-c2nc(NC(C)C)nc(NC(C)(C)C#N)n2)c1 [Compound 32] | –
13 | 100 to 1000 | > 1000 | C[C@H](Nc1nc(N[C@H](C)c2ccccc2)nc(-c2cccc(C(F)(F)F)n2)n1)c1ccccc1 [Compound 26] | IC50 [3]: < 50 nM
14 | > 1000 | > 1000 | CC(C)CNc1nc(NC(C)(C)C#N)nc(-c2cc(O)ccc2F)n1 [Compound 86] | IC50 [7]: 50 to 100 nM
15 | > 1000 | > 1000 | CC(C)(CO)Nc1nc(Nc2ccnc(C(C)(F)F)c2)nc(-c2cccc(C(F)(F)F)n2)n1 [Compound 49] | –
16 | 50 to 100 | 100 to 1000 | C[C@@H](Nc1nc(NC2(c3ccccc3)CC2)nc(-c2cccc(C(F)(F)F)n2)n1)C1CC1 [Compound 30] | IC50 [3]: 50 to 100 nM
17 | > 1000 | > 1000 | C[C@@H](Nc1nc(N[C@H](C)C2CC2)nc(-c2cccc(CO)c2)n1)C1CC1 [Compound 16] | IC50 [3]: < 50 nM
18 | < 50 | 50 to 100 | C[C@@H](Nc1nc(NC2CCC(F)(F)CC2)nc(-c2cccc(C(F)(F)F)n2)n1)C1CC1 [Compound 50] | IC50 [7]: < 50 nM
19 | 100 to 1000 | > 1000 | COCC(C)Nc1nc(N[C@H](C)C2CC2)nc(-c2cccc(C(F)(F)F)n2)n1 (some centres unmarked) [Compound 44] | –
20 | 100 to 1000 | > 1000 | C[C@@H](Nc1cc(NC(C)(C)C)nc(-c2cccc(C(F)(F)F)n2)n1)C1CC1 [Compound 417] | IC50 [5]: 100 to 1000 nM
21 | < 50 | 50 to 100 | FC(F)(F)c1cccc(-c2nc(NC3CC4CC4C3)nc(NC3CC4CC4C3)n2)n1 (centres unmarked) [Compound 36] | IC50 [7]: < 50 nM
22 | > 1000 | – | C[C@@H](Nc1nc(NCC(N)=O)nc(-c2cccc(C(F)(F)F)n2)n1)C1CC1 [Compound 5] | IDH1 R132C IC50 [2]: No Fit

Row | IC50 [1] [nM] | IC50 [2] [nM] | SMILES | further results
23 | > 1000 | – | C[C@@H](Nc1nc(N[C@H](C)C2CC2)nc(-c2cccc(C(F)(F)F)n2)n1)C(=O)O [Compound 47] | IDH1 R132C IC50 [2]: No Fit
24 | > 1000 | 100 to 1000 | C[C@@H](Nc1nc(N[C@H](C)C2CC2)nc(-c2ccccc2F)n1)C1CC1 [Compound 6] | –
25 | > 1000 | > 1000 | C[C@@H](Nc1nc(NCc2ccccc2)nc(-c2cccc(C(F)(F)F)n2)n1)C1CC1 [Compound 21] | IC50 [3]: < 50 nM
26 | > 1000 | > 1000 | C[C@@H](Nc1nc(NCc2ccccn2)nc(-c2cccc(C(F)(F)F)n2)n1)C1CC1 [Compound 24, (R)-N^2-(1-cyclopropylethyl)-N^4-(pyridin-2-ylmethyl)-6-(6-(trifluoro-methyl)pyridin-2-yl)-1,3,5-triazine-2,4-diamine] | –
27 | 50 to 100 | 100 to 1000 | C[C@@H](Nc1nc(N[C@H]2CCCC[C@@H]2O)nc(-c2cccc(C(F)(F)F)n2)n1)C1CC1 [Compound 42] | –
28 | 50 to 100 | 50 to 100 | CC(C#N)Nc1nc(N[C@H](C)C2CC2)nc(-c2cccc(C(F)(F)F)n2)n1 (some centres unmarked) [Compound 40] | –
29 | 50 to 100 | 100 to 1000 | CC(Nc1nc(N[C@H](C)C2CC2)nc(-c2cccc(C(F)(F)F)n2)n1)c1cccc(C(F)(F)F)c1 (some centres unmarked) [Compound 27] | –
30 | 50 to 100 | > 1000 | FC1(F)CCC(Nc2nc(NC3CCC(F)(F)CC3)nc(-c3cccc(C(F)(F)F)n3)n2)CC1 [Compound 41] | –
31 | < 50 | 50 to 100 | C[C@@H](Nc1nc(N[C@H](C)C2CC2)nc(-c2cccc(Cl)n2)n1)C1CC1 [Compound 45] | –
32 | 100 to 1000 | > 1000 | FC(F)(F)c1cccc(-c2nc(NCC3CCC3)nc(NCC3CCC3)n2)n1 [Compound 7] | IC50 [3]: < 50 nM
33 | > 1000 | > 1000 | C[C@@H](Nc1nc(N[C@H](C)C2CC2)nc(-c2cccc(N3CCC3)n2)n1)C1CC1 [Compound 51] | –
34 | 100 to 1000 | > 1000 | C[C@@H](Nc1nc(NC(=O)c2ccccc2)nc(-c2cccc(C(F)(F)F)n2)n1)C1CC1 [Compound 29] | –
35 | > 1000 | > 1000 | CC(O)CNc1nc(NCC(C)O)nc(-c2cccc(C(F)(F)F)n2)n1 (centres unmarked) [Compound 14] | IC50 [3]: > 1000 nM
36 | 50 to 100 | 100 to 1000 | C[C@@H](Nc1nc(N[C@H](C)C2CC2)nc(-c2cccc(C(F)(F)F)n2)n1)c1ccccc1 [Compound 22] | IC50 [3]: < 50 nM
37 | > 1000 | > 1000 | CC(O)CNc1nc(N[C@H](C)C2CC2)nc(-c2cccc(C(F)(F)F)n2)n1 (stereo partly drawn) [Compound 12, 1-(4-((R)-1-cyclopropylethylamino)-6-(6-(trifluoromethyl)pyridin-2-yl)-1,3,5-triazin-2-ylamino)propan-2-ol] | IC50 [3]: 50 to 100 nM
38 | 100 to 1000 | 50 to 100 | CC(C)Nc1nc(NC(C)C)nc(-c2cccc(C(F)(F)F)n2)n1 [Compound 3] | –
39 | 50 to 100 | 50 to 100 | CC(Nc1nc(N[C@H](C)C2CC2)nc(-c2cccc(C(F)(F)F)n2)n1)c1ccccc1 (single isomer, unassigned) [Compound 20] | IC50 [7]: < 50 nM; IC50 [3]: < 50 nM
40 | > 1000 | > 1000 | CC(Nc1nc(N[C@H](C)C2CC2)nc(-c2cccc(C(F)(F)F)n2)n1)c1ccccn1 (stereo partly drawn) [Compound 25, N^2-((R)-1-cyclopropylethyl)-N^4-(1-(pyridin-2-yl)ethyl)-6-(6-(trifluoromethyl)pyridin-2-yl)-1,3,5-triazine-2,4-diamine] | –
41 | > 1000 | > 1000 | CCN(CC)c1nc(N[C@H](C)C2CC2)nc(-c2cccc(Cl)n2)n1 [Compound 46] | –
42 | > 1000 | > 1000 | CC(C)Nc1nc(NC(C)(C)C#N)nc(-c2cc(O)ccc2F)n1 [Compound 35] | –
43 | 50 to 100 | 100 to 1000 | C[C@@H](Nc1nc(NC2CCOC2)nc(-c2cccc(C(F)(F)F)n2)n1)C1CC1 (some centres unmarked) [Compound 38] | –

Row | SMILES | IC50 [1] [nM] | IC50 [2] [nM] | further results
44 | FC(F)(F)c1cccc(-c2nc(NCC3CC3)nc(NCC3CC3)n2)n1 [Compound 1] | > 1000 | > 1000 | IC50 [3]: < 50 nM; IC50 [6]: < 50 nM
